Test system: Hepatic metastases
Experiment: Induced hepatic metastases after intrasplenic tumor cell injection
Assay type: in vivo, C57BL/6 mice
Conditions: DAP 100 mg/kg; for Metastic foci: mean ± S.E., n=8; for % Reduction: reduction in metastic foci from PBS control group
Experimental: Hepatic metastases were induced as follows. C57BL/6 mice were anesthetized by […] of pentobarbital. The mice were prepped with 70% ethanol, dried with a sterile gauze, and then, with the use of sterile scissors, a small left subcostal incision was made. The spleen was exposed, and its short gastric vessels along with the gastrosplenic ligament were cut, allowing the spleen to be brought onto the animal's abdominal wall attached to its splenic pedicle. […] of a single cell suspension containing 3 x 10⁵ tumor cells in HBSS was injected into the upper pole of the exposed extraabdominal spleen. After the injection was completed, the needle was removed, and a period of 1 minute was allowed to elapse to permit tumor cells to be flushed into the portal circulation. The splenic pedicle was clipped, the spleen was removed, and splenic pedicle was dropped i.p. The abdominal wall musculature and skin were closed in one layer. The animals were randomly allocated to their respective treatment groups and were allowed to recover. By day 3 after tumor injection, micrometastases were apparent histologically.
Each group was then treated with DAP, intraperitonealy, subcutaneously, or orally. A control group was treated with phosphate buffered saline (PBS). Metastic foci was determined and the percent reduction in metastic foci from the control group was determined with each group treated with DAP as follows: […]

Structure (SMILES): CC(=O)NCCCCNC(C)=O [DAP, Diacetylputrescine]
- Metastic foci (d1-10, i.p.): 40.8 ± 14.7
- % Reduction (d1-10, i.p.): 65.9%
- Metastic foci (d1-10, p.o.): 27.2 ± 7.1
- % Reduction (d1-10, p.o.): 77.3%
- Metastic foci (d1-10, s.c.): 31.0 ± 8.4
- % Reduction (d1-10, s.c.): 74.1%
